From patent publication US5563142A, “Diaromatic substituted compounds as anti-HIV-1 agents” (The Upjohn Company, priority 1994, dated 1996)
Counter-ions that a name gives are not always drawn. Like-named read-outs stand apart in the source and are kept apart here.

Columns and labels:
[1] = target: T1, viral reverse transcriptase (Human immunodeficiency virus type 1 group M subtype B, UniProt P04585); assay: Viral reverse transcriptase inhibition, cell free assay; assay type: biochemical, human immunodeficiency virus (HIV-1); conditions: poly rC or poly rG template; for inhibition at 100 µM: read-out: RT % INHIBITION (100 μM), 100 μM
T1 construct: Viral reverse transcriptase is found in extracts from bacterial clones; made in house; host or cells: Escherichia coli (extracts of bacterial clones, by the procedure of Larder et al., EMBO J. 6:3133-3137, 1987)
Excerpt: The utility of the diaromatic substituted piperazines (III), the anti-AIDS piperazines (IV) and the indoles (V) of this invention can be determined by their ability to inhibit viral reverse transcriptase, an enzyme essential for human immunodeficiency virus replication. This enzyme has characteristics which differentiate it from other known cellular polymerases and it is a unique enzyme which is not found in uninfected cells. Viral reverse transcriptase is found in extracts from bacterial clones prepared according to the procedure described in AIDS Virus Reverse Transcriptase defined by high level expression in Escherichia coli, EMBO J. 6:3133-3137 (1987). Inhibition of this enzyme is determined in a cell free assay which measures the level of radioactive precursors incorporated into DNA. Extracts prepared according to the procedure of Science, 1125-1129 (1981) are incubated in a mixture of inhibitor, 20 mM dithiothreitol, 60 mM sodium chloride, 0.05% NP-40, 10 mM magnesium chloride, 50 mM Tris pH 8.3, 10 μM [^35 S]-labeled deoxynuleoside-5'-triphosphate, 10 μg/ml RNA template (poly rC or poly rG) and 5 μg/ml DNA primer (oligo dG or oligo dT) for 30 minutes at 37° C. Incorporation of radio-labeled percursor is determined by spotting aliquots of the reaction mixture on DE81 paper, washing the papers to remove unincorporated percursor, drying and determining counts. The results (IC50 means the concentration, in μM of drug, required to inhibit the reverse transcriptase activity to the extent of 50%) of various assay(s) are combined and reported as % inhibition and IC50 (calculated).
^1 Viral reverse transcriptase is found in extracts from bacterial
clones prepared according to the procedure described by Larder, B.,
Purifoy D., Powell, K. and Darby, G., AIDS virus reverse transcriptase
defined by high level expression in Escherichia coli., EMBO J. 6,
3133-3137 (1987). Inhibition of this enzyme is determined in a cell free
assay which measures the level of radioactive precursors incorporated int
DNA. Extracts prepared according to the procedure of Kleid, D. G., et
al., Science, 1125-1129 (1981) are incubated in a mixture of inhibitor, 2
mM dithiothreitol, 60 mM sodium chloride, 0.05% NP40, 10 mM magnesium
chloride, 50 mM Tris pH 8.3, 10 μM [^35 Slabeled
deoxynucleoside5triphosphate, 10 μg/ml RNA template (poly rC or poly
rG) and 5 μg/ml DNA primer (oligo dG or oligo dT) for 15 minutes at
37°. Incorporation of radio labeled precursor is determined by
harvesting the trichloroacetic acid precipitated reaction mixtures on
glass fiber filters, drying, and determining counts. The results of
various assays are combined and reported as % inhibition at a 100 μM

[2] = tested on: HIV in primary human peripheral blood lymphocytes; assay: Primary PBL assay: inhibition of viral replication (p24 & RNA); assay type: cell-based; conditions: primary human lymphocytes infected with HIV, days three and four, read-out: PBL INHIBITION OF VIRAL REPLICATION (p24 & RNA) ED50
Protocol: ^3 The utility of the compounds of the invention is further
infection in primary peripheral blood lymphocytes (primary PBL assay). Th
primary PBL assay offers the following advantages:
(a) The assays are performed with primary human lymphocytes. Thereby,
undesired testing of transformed cell lines is avoided in which host cell
and virus may have undergone processes of mutual adaptation. Performance
of cell culture in serum containing media closely mimics the in vivo
situation. (b) The primary PBL assay distinguishes between true antiviral
effect which is due to the drug and cytostatic/cytotoxic reactions. (c)
Viral replication is precisely followed by kinetic measurement of viral
nucleic acids and proteins. (d) Nucleic acids (total HIVRNA intra and
extracellular) and protein (secreted p24) are measured in parallel which
permits one to differentiate between the compound's effect on virus
replication and on the expression of viral proteins. This leads to
additional information regarding the efficacy of the test compound. (e)
Tolerance of the cell culture against low amounts of organic solvents als
permits the investigation of hydrophobic substances. (f) The dose of the
drug causing half maximal suppression of virus replication is determined.
(g) The screening system is standardized and automated to a high degree.
The primary PBL assay uses the following procedure:
Effects of the compounds of the invention on cell proliferation are determined by lymphocyte proliferation assays. Starting with a 100 micromolar solution, the compound is serially diluted 10 fold. One tenth of the concentration of a compound causing half maximal inhibition of cellular proliferation is employed for all subsequent testing.
Peripheral human lymphocytes are isolated by density gradient centrifugation. After stimulation by mitogen the cells are infected with a standardized preparation of HIV. Subsequently, the infected cells are cultured in the presence of the drug for four days. Individual cultures are established to measure viral replication three and four days following infection. Untreated cells and AZT-treated cells are included as controls in parallel with the drugs under investigation.
The amount of viral core protein p24 synthesized and release by the infected cells is determined in the supernatant by the capture-ELISA technique on days three and four. By comparing with a standard preparation, the amount of protein produced by the virus infected cells is quantified.
The total amount of viral RNA synthesized by the infected lymphocytes is determined by a special nucleic acid hybridization on days three and four of culture. By including a standard preparation of HIV-RNA the amount of synthesized RNA is quantified.
In addition, viability of HIV-infected cells is determined in parallel with assays for viral p24 and RNA. In order to evaluate the half maximal antiviral effect of the drug, a concentration dependency of the drug action is measured.
Numerous examples of the compounds of the invention are assayed according to this procedure. The anti-HIV activity, as measured by the inhibition of the release of core p24 protein in HIV infected human lymphocytes, is used to calculate ED50 -antiviral (the concentration required to give a 50% reduction in p24 synthesis).

[3] = Human immunodeficiency virus 1, Lymphocyte

SMILES	inhibition at 100 µM [1]	EC50 [2]	EC50 [2, 3]	RT % INHIBITION (100 μM) ([1]; 100 μM)
CCNc1cccnc1N1CCN(C(=O)c2cc3cc(OC)ccc3[nH]2)CC1 [Example 16, 1-[5-Methoxyindolyl-2-carbonyl]-4-[3-(ethylamino)-2-pyridinyl]piperazine]	85 to 88%	3 nM	–	–
O=C(c1cc2cc(F)ccc2[nH]1)N1CCN(c2ncccc2NCC(F)(F)F)CC1 [Example 34, 1-[5-Fluoroindolyl-2-carbonyl]-4-[3-(2,2,2-trifluoroethylamino)-2-pyridinyl]piperazine]	41%	–	< 10000 nM	–
CC(C)Nc1cccnc1N1CCN(C(=O)c2cc3cc(OCc4ccccc4)ccc3[nH]2)CC1 [Example 36, 1-[5-Benzyloxyindolyl-2-carbonyl]-4-[3-(1-methylethyl)amino-2-pyridinyl]piperazine]	69 to 84%	–	10 nM	–
CC(C)Nc1cccnc1N1CCN(C(=O)c2cc3cc(O)ccc3[nH]2)CC1 [Example 38, 1-[5-Hydroxyindolyl-2-carbonyl]-4-[3-(1-methylethylamino)-2-pyridinyl]piperazine]	96 to 98%	–	< 1 nM	–
CC(C)Nc1nccnc1N1CCN(C(=O)c2cc3cc(F)ccc3[nH]2)CC1 [Example 47, 1-(5-Fluoroindolyl-2-carbonyl)-4-[3-(1-methylethylamino)-2-pyrazinyl]piperazine]	91%	–	1 to 10 nM	–
CC(C)Nc1cncnc1N1CCN(C(=O)c2cc3cc(F)ccc3[nH]2)CC1 [Example 48, 1-(5-Fluoroindolyl-2-carbonyl)-4-[5-(1-methylethylamino)-4-pyrimidinyl]piperazine]	63 to 92%	–	10 to 100 nM	–
CC(C)Nc1ccnnc1N1CCN(C(=O)c2cc3ccccc3[nH]2)CC1 [Example 49, 1-(Indolyl-2-carbonyl)-4-[4-(1-methylethylamino)-3-pyridazinyl]piperazine, methane sulfonate]	84 to 94%	–	≤ 100 nM	–
CC(C)Nc1ccnnc1N1CCN(C(=O)c2cc3cc(F)ccc3[nH]2)CC1 [Example 50, 1-(5-Fluoroindolyl-2-carbonyl)-4-[4-(1-methylethyl)amino)-3-pyridazinyl]piperazine, methane sulfonate]	84 to 97%	–	100 nM	–
CC(C)Nc1cccnc1N(C)CCN(C)C(=O)c1cc2ccccc2[nH]1 [Example 52, N,N'-Dimethyl-N-(indolyl-2-carbonyl)-N'-(3-(1-methylethylamino)pyrid-2-yl)ethylenediamine]	89 to 94%	–	100 to 1000 nM	–
CC(C)Nc1cccnc1N(C)CCCN(C)C(=O)c1cc2ccccc2[nH]1 [Example 53, N,N'-Dimethyl-N-(indolyl-2-carbonyl)-N'-[3-(1-methylethyl-amino)-2-pyridyl]-1,3-propanediamine]	82 to 94%	–	1 to 10 nM	–
CC(C)Nc1cccnc1N(C)CCCCCCN(C)C(=O)c1cc2ccccc2[nH]1 [Example 54, N,N'-Dimethyl-N-(indolyl-2-carbonyl)-N'-[3-(1-methylethyl-amino)-2-pyridinyl]-1,6-hexanediamine]	70 to 80%	–	100 nM	–
CC(C)Nc1cccnc1N(C)CCOC(=O)c1cc2ccccc2[nH]1 [Example 55]	66 to 79%	–	100 to 1000 nM	–
O=C(c1cc2ccccc2[nH]1)N1CCN(c2ncccc2NC2CCCC2)CC1 [Example 56, 1-(Indolyl-2-carbonyl)-4-(3-cyclopentylamino-2-pyridinyl)piperazine]	79 to 93%	–	100 to 1000 nM	–
CC(C)Nc1cccnc1OCCN(C)C(=O)c1cc2ccccc2[nH]1 [Example 58, 2-(2-(N-Methyl-N-(indolyl-2-carbonyl)amino)ethoxy)-3-(1-methylethylamino)pyridine]	94 to 98%	–	< 100 nM	–
CCOC(=O)COc1ccc2[nH]c(C(=O)N3CCN(c4ncccc4NC(C)C)CC3)cc2c1 [Example 60, 1-[5-(Ethoxycarbonylmethoxy)indolyl-2-carbonyl]-4-[3-(1-methylethylamino)-2-pyridinyl]piperazine]	89 to 92%	–	100 to 1000 nM	–
CC(C)Nc1cccnc1N1CCN(C(=O)c2cc3cc(OCC(=O)O)ccc3[nH]2)CC1 [Example 61, sodium salt]	91%	–	1000 nM	–
CC(C)Nc1cccnc1N1CCN(C(=O)c2nc3ccccc3[nH]2)CC1 [Example 62]	–	1000 to 10000 nM	–	64-78%
CNc1cccnc1N1CCN(C(=O)c2cc3cc(F)ccc3[nH]2)CC1 [Example 63, 1-(5-Fluoroindolyl-2-carbonyl)-4-[3-methylamino-2-pyridinyl]piperazine]	82 to 88%	–	1000 nM	–
CNc1cccnc1N1CCN(C(=O)c2cc3cc(OC)ccc3[nH]2)CC1 [Example 64, 1-(5-Methoxyindolyl-2-carbonyl)-4-[3-(methylamino)-2-pyridinyl]piperazine]	88 to 94%	–	≤ 1000 nM	–
CNc1cccnc1N1CCN(C(=O)c2cc3ccccc3[nH]2)CC1 [Example 65, 1-(Indolyl-2-carbonyl)-4-[3-(methylamino)-2-pyridinyl]piperazine]	81 to 93%	–	≤ 1 nM	–
CC(C)Nc1cccnc1N1CCN(C(=O)c2ccc[nH]2)CC1 [Example 69, 1-[Pyrrolyl-2-carbonyl]-4-[3-(1-methylethylamino)-2-pyridinyl]piperazine]	95%	–	100 nM	–
CCNc1cccnc1N1CCN(C(=O)c2cc3ccc(OC)c(C)c3[nH]2)CC1 [Example 71, 1-[6-Methoxy-7-methylindolyl-2-carbonyl]-4-(3-ethylamino-2-pyridinyl)piperazine]	88 to 95%	–	10 to 100 nM	–
COc1cc2cc(C(=O)N3CCN(c4ncccc4NC(C)C)CC3)[nH]c2cc1OC [Example 72, 1-[5,6-Dimethoxyindolyl-2-carbonyl]-4-[3-(1-methylethylamino)-2-pyridinyl]piperazine]	43 to 66%	–	< 10 nM	–
